The values below come from patent US6448405B1, “Steroid receptor modulator compounds and methods” (Ligand Pharmaceuticals Incorporated, priority 1994, dated 2002).

Series [1] deals with T1, human glucocorticoid receptor alpha (GRα) (Homo sapiens, UniProt P04150).
T1 construct: made in house; crude extract used
T1 sequence (P04150 1-777): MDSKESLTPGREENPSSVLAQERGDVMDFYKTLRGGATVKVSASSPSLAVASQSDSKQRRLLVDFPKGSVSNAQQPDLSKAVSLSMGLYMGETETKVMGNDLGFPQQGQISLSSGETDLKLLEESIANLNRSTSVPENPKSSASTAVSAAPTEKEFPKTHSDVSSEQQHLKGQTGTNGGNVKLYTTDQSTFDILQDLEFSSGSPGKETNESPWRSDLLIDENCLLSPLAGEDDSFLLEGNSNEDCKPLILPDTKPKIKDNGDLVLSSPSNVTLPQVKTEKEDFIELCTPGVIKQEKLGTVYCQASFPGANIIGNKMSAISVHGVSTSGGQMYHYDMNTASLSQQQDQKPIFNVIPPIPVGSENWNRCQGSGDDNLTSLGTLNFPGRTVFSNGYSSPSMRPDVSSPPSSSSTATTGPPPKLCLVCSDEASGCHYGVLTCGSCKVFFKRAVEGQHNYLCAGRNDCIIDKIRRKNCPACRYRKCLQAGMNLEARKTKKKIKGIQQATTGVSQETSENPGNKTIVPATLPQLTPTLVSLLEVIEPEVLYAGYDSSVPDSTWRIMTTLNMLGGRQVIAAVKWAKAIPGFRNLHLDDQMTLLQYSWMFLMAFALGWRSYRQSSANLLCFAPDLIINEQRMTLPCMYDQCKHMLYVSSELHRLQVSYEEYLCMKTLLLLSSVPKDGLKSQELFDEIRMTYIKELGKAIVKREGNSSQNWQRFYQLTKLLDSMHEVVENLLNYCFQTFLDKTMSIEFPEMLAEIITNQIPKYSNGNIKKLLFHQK
The series can be described thus: GR binding assay, baculovirus extract, [3H] dexamethasone. Conditions: competition with [3H] dexamethasone, 4° C., 16 hours; read-out: GR Binding K1.

The target of series [2] is T2, human glucocorticoid receptor (GR) (Homo sapiens, UniProt P04150).
T2 construct: expressed in transfected cells; host or cells: CV-1 cells, transient transfection
T2 sequence (P04150 1-777): T1 sequence (P04150 1-777)
Nature of the series: Co-transfection assay, GR antagonist activity, CV-1 cells (pRShGR). Type of series: cell-based. Conditions: antagonist mode; for GR Antagonist CV-1 Cells Efficacy (%): % maximal inhibition; for IC50: read-out: GR Antagonist CV-1 Cells Potency.

Series [3] addresses T3, human mineralocorticoid receptor (MR) (Homo sapiens, UniProt P08235).
T3 construct: expressed in transfected cells; host or cells: CV-1 cells, transient transfection
T3 sequence (P08235 1-984): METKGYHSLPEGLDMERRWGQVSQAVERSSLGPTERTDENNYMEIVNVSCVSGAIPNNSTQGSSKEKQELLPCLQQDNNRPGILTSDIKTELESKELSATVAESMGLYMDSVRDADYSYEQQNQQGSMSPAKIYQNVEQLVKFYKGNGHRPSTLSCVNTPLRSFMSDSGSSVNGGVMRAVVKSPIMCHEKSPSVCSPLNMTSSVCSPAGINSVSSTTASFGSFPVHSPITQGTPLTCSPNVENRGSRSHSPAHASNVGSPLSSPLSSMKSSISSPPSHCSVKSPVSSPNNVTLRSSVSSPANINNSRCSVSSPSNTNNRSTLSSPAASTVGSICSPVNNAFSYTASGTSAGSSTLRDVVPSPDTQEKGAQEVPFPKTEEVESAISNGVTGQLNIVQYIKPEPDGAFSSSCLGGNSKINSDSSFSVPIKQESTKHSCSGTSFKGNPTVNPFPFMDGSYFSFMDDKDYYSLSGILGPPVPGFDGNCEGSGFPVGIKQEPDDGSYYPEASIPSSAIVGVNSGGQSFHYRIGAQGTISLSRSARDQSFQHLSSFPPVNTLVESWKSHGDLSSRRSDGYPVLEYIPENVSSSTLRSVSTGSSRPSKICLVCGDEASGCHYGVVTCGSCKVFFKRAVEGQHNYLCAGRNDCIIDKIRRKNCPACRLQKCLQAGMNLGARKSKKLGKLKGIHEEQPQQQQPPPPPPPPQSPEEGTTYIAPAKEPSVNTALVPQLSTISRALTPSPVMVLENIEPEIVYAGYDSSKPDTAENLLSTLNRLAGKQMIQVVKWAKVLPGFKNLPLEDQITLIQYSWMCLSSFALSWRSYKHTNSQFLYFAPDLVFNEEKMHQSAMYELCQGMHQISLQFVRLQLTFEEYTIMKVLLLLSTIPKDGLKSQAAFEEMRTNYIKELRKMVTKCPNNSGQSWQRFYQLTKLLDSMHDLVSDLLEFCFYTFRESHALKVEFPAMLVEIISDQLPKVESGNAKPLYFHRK
Nature of the series: Co-transfection assay, MR antagonist activity, CV-1 cells (pRShMR). Type of series: cell-based. Conditions: antagonist mode; for MR Antagonist CV-1 Cells Efficacy (%): % maximal inhibition; for IC50: read-out: MR Antagonist CV-1 Cells Potency.

Series [4] concerns ventral prostates (VP) and seminal vesicles (SV) of immature castrated rats. The series can be described thus: Immature castrated male rat model (antiandrogen activity). Conditions: co-administered with 0.1 mg of TP. Type of series: in vivo.
Experimental: Since the male sex organs are the tissues most responsive to modulation of androgen activity, this model is used to determine the androgen-dependent growth of the sex accessory organs in immature castrated rats.
Five days after surgery, animals groups were dosed for 3 days as follows:
At the end of the 3-day treatment, the animals were sacrificed, and the ventral prostates (VP) and seminal vesicles (SV) were collected and weighed. To compare data from different experiments, the sexual organ weights were first standardized as mg per 100 g of body weight, and the increase in organ weight induced by TP was considered as the maximum increase (100%). Super-anova (one factor) was used for statistical analysis.
The gain and loss of sexual organ weights reflect the changes of cell number (DNA content) and cell mass (protein content), depending upon the serum androgen concentration. […] Therefore, measurement of organ wet weights is sufficient to indicate the bioactivity of androgens and androgen antagonists.
The next series concerns PR, AR, ER, GR and MR. Nature of the series: cis-trans or co-transfection assay, steroid receptor panel (cross-reactivity). In kind it is cell-based, human. Particulars: as seen in the Tables.
Series [5] deals with pregnancy (implantation sites) in female mice (ICR strain). The series can be described thus: Implantation assay (antiprogestin activity). Conditions: R5020 1.0 mg per day. In kind it is in vivo, mouse. As to the method:
Mating was assumed to have taken place at 02.00 h, time 0.
Compound 150 was dissolved in sesame oil (50 mg/mL) and kept at room temperature before use. […] Control animals received an equivuivalent volume of the control vehicle, sesame oil, alone.
The animals were sacrificed, and autopsies were carried out at Day 8 of pregnancy, and numbers of implantation sites counted and recorded, and are shown in Table 7 below. Each group consisted of between 5 and 7 animals.

The target in a further series is T4, human PR-B (Homo sapiens, UniProt P06401).
T4 construct: expressed in transfected cells; host or cells: CV-1 cells (African green monkey kidney fibroblasts), transient transfection
T4 sequence (P06401 1-933): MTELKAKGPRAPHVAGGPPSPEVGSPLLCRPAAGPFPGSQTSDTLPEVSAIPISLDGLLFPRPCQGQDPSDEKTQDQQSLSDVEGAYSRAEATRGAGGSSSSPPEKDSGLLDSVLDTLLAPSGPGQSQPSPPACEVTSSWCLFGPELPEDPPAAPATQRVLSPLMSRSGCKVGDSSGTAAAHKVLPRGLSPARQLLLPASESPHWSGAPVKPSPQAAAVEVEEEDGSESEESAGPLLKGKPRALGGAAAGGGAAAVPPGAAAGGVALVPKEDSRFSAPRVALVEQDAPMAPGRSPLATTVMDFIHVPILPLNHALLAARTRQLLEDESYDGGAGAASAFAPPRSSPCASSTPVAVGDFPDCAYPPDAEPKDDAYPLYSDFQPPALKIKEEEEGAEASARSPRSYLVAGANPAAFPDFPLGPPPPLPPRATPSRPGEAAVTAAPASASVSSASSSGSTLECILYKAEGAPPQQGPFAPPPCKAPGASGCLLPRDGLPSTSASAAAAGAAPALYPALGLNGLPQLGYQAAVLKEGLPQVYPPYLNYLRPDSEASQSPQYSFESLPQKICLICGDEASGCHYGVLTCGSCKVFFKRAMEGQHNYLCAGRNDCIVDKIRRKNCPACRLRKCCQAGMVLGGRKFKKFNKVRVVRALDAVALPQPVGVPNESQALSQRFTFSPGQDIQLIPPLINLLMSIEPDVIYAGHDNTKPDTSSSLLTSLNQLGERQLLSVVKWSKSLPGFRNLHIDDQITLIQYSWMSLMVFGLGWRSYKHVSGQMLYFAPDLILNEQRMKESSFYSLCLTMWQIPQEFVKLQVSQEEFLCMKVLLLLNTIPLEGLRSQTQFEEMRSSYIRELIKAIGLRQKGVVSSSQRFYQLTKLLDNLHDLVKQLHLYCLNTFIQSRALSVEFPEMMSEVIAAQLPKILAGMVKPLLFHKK
Nature of the series: Co-transfection assay, PR agonist and antagonist activity, CV-1 cells.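 Also: luciferase reporter driven by a hormone response element, co-transfected with human PR-B into CV-1 monkey kidney cells, agonists raise and antagonists lower the reporter signal.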 Type of series: cell-based.

In series [6] the target is T5, human progesterone receptor A form (PR-A) (Homo sapiens, UniProt P06401).
T5 sequence (P06401 1-769 isoform P06401-2): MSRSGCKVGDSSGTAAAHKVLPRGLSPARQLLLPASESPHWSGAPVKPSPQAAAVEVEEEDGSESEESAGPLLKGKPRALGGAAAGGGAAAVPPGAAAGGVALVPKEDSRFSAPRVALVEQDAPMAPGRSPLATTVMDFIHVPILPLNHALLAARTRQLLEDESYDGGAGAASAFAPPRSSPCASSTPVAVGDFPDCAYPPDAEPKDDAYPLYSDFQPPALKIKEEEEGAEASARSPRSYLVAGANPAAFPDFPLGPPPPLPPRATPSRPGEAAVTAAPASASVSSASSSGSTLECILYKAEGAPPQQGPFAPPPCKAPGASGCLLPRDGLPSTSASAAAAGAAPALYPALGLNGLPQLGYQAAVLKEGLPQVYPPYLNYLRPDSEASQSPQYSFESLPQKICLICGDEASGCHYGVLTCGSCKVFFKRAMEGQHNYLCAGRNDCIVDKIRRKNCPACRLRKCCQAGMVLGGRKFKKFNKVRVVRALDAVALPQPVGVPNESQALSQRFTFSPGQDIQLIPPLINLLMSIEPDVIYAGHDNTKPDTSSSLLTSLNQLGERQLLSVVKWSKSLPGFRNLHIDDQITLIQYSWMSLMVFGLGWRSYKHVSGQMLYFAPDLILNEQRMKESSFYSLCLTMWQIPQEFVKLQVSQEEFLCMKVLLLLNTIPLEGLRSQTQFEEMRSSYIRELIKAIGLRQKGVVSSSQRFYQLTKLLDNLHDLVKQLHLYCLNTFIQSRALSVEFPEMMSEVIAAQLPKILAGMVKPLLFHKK
Nature of the series: PR binding assay, baculovirus extract, [3H] progesterone. Conditions: read-out: PR Binding Ki.

What is called melting point is the temperature of the solid-liquid transition.

Take `CC1=CC(C)(C)Nc2ccc3c(c21)C(c1ccc(C)cc1)Oc1ccccc1-3` (racemic) [Compound 167, (R/S)-1,2-Dihydro-2,2,4-trimethyl-5-(4-Methylphenyl)-5H-chromeno[3,4-f]quinoline]: the Ki in [1] was 21 nM. Further, the “GR Antagonist CV-1 Cells Efficacy (%)” value in series [2] (Table 4) and in series [2] (dexamethasone at its EC50) was 96% throughout. Moreover, the IC50 was 855 nM in series [2] (dexamethasone at its EC50) and 2000 nM in series [3] (aldosterone at its EC50). In addition, the “MR Antagonist CV-1 Cells Efficacy (%)” value in series [3] (Table 4) and in series [3] (aldosterone at its EC50) was 61% each time.
As to `CC1=CC(C)(C)Nc2c1cc1c(C(F)(F)F)cc(=O)[nH]c1c2C` [Compound 255, 1,2-Dihydro-2,2,4,10-tetramethyl-6-trifluoromethyl-8-pyridono[5,6-g]quinoline], the “AR antagonist activity: suppression of testosterone-mediated increases in the weights of VP and SV” value in [4] is recorded as “exhibited AR antagonist activity”.
Take `CC1=CC(C)(C)Nc2ccc3c(c21)C(c1cc(F)cc(Br)c1)Oc1ccccc1-3` (racemic) [Compound 351, (R/S)-5-(3-Bromo-5-Fluorophenyl)-1,2-dihydro-2,2,4-trimethyl-5H-chromeno[3,4-f]quinoline]: the melting point lay in the range of 82 to 84 °C.
On to `C=C1CC(C)(C)Nc2ccc3c(c21)C(c1cccc(F)c1)Oc1ccccc1-3` (racemic) [Compound 192, (R/S)-5-(3-Fluorophenyl)-1,2,3,4-tetrahydro-2,2-dimethyl-4-methylidene-5H-chromeno[3,4-f]quinoline], for which, in [1], the Ki came to 214 nM. In addition, in series [2] (Table 4), the “GR Antagonist CV-1 Cells Efficacy (%)” value came to 81%. The results for the IC50 in series [2] (dexamethasone at its EC50) and in series [3] (aldosterone at its EC50) were 280 nM and 320 nM, respectively. For the same compound, the “MR Antagonist CV-1 Cells Efficacy (%)” value in series [3] (Table 4) was determined as 70%.
On the same counts, the results for `CC1=CC(C)(C)Nc2ccc3c(c21)C(c1ccsc1)Oc1ccccc1-3` (racemic) [Compound 170, (R/S)-1,2-Dihydro-2,2,4-trimethyl-5-(thiophen-3-yl)-5H-chromeno[3,4-f]quinoline] are 47 nM, 94%, 1550 nM, 410 nM and 84%.
Regarding `CC1=CC(C)(C)Nc2cc3c(cc21)c(C(F)(F)F)cc(=O)n3C` [Compound 261, 1,2-Dihydro-2,2,4,9-tetramethyl-6-trifluoromethyl-8-pyridono[5,6-g]quinoline], in [4], the “AR antagonist activity: suppression of testosterone-mediated increases in the weights of VP and SV” value is on record as “exhibited AR antagonist activity”.
Take `CC1=CC(C)(C)Nc2ccc(-c3cccc(C#N)c3)cc21` [Compound 150, 6-(3-Cyanophenyl)-1,2-dihydro-2,2,4-trimethylquinoline]: in the series on PR, AR, ER, GR and MR, the “steroid receptor selectivity profile” value is “highly selective PR antagonists”. The “effect on pregnancy rate with simultaneous injection of PR agonist R5020” value in series [5] is reported as “reversed to the control level”. In addition, the EC50 at human PR-B (agonist mode, EC50, read-out: PR Agonist CV-1 Cells Potency) was 3200 nM. Moreover, the IC50 at human PR-B (read-out: PR Antagonist CV-1 Cells Potency) stood at 24 nM. For the same compound, the Ki in [6] amounted to 17 nM.
